Assay results as given in patent US4918056A, “2-substituted arabinopyranosyl nucleosides and nucleotides” (priority 1986, dated 1990).

Tested on: L1210/0 leukemia
Assay: Therapeutic activity against i.p. inoculated L1210/0 leukemic mice
Assay type: in vivo, mouse (DBA/2N female)
Conditions: for Mean ± SD survival: control 6.7 ± 0.1; for Median survival: control 7
Experimental: The control group consisted of 20 mice injected with a 0.2 ml suspension of 0.5% Tween 80 in saline.

COC1OC[C@@H](OC(C)=O)[C@@H](OC(C)=O)[C@]1(F)n1ccc(=O)[nH]c1=O (stereo partly drawn) [compound 85024, Methyl 3,4-di-0-acetyl-2-deoxy-2(R)-[1H,3H-2,4-dioxo-1-pyrimidinyl]-2-fluoro-α-D-arabinopyranoside [5a] and methyl 3,4-di-0-acetyl-2-deoxy-2(R)-[1H,3H-2,4-dioxo-1-pyrimidinyl]-2-fluoro-β-D-arabinopyranoside [6a]]
Mean Animal Weight (on the day of death) (50 mkd × 5 i.p.): 23.4 g
Survival Range (50 mkd × 5 i.p.): 7 to 8 days
% ILS (increase in life span) (50 mkd × 5 i.p., N.S.): 7%
Mean ± SD survival (50 mkd × 5 i.p.): 7.2 ± 0.2 days
Median survival (50 mkd × 5 i.p.): 7 days
Mean Animal Weight (on the day of death) (100 mkd × 5 i.p.): 24.0 g
Survival Range (100 mkd × 5 i.p.): 8-8 days
% ILS (increase in life span) (100 mkd × 5 i.p., N.S.): 19%
Mean ± SD survival (100 mkd × 5 i.p.): 8.0 ± 0 days
Median survival (100 mkd × 5 i.p.): 8 days
Mean Animal Weight (on the day of death) (200 mkd × 5 i.p.): 22.0 g
Survival Range (200 mkd × 5 i.p.): 8 to 10 days
Mean ± SD survival (200 mkd × 5 i.p.): 8.8 ± 0.2 days
Median survival (200 mkd × 5 i.p.): 9 days
% ILS (increase in life span) (200 mkd × 5 i.p., p < 0.01): 31%
Mean Animal Weight (on the day of death) (400 mkd × 5 i.p.): 18.8 g
Survival Range (400 mkd × 5 i.p.): 9 to 11 days
Mean ± SD survival (400 mkd × 5 i.p.): 9.9 ± 0.2 days
Median survival (400 mkd × 5 i.p.): 10 days
% ILS (increase in life span) (400 mkd × 5 i.p., p < 0.01): 48%
Mean Animal Weight (on the day of death) (500 mkd × 5 i.p.): 17.3 g
Survival Range (500 mkd × 5 i.p.): 10 to 11 days
Mean ± SD survival (500 mkd × 5 i.p.): 10.4 ± 0.2 days
Median survival (500 mkd × 5 i.p.): 10 days
% ILS (increase in life span) (500 mkd × 5 i.p., p < 0.01): 55%
Mean Animal Weight (on the day of death) (600 mkd × 5 i.p.): 16.8 g
Survival Range (600 mkd × 5 i.p.): 7 to 11 days
Mean ± SD survival (600 mkd × 5 i.p.): 9.4 ± 0.8 days
Median survival (600 mkd × 5 i.p.): 10 days
% ILS (increase in life span) (600 mkd × 5 i.p., p < 0.5): 40%
Mean Animal Weight (on the day of death) (700 mkd × 5 i.p.): 16.6 g
Survival Range (700 mkd × 5 i.p.): 4 to 7 days
% ILS (increase in life span) (700 mkd × 5 i.p., N.S.): -10%
Mean ± SD survival (700 mkd × 5 i.p.): 6.0 ± 0.6 days
Median survival (700 mkd × 5 i.p.): 7 days
% ILS (increase in life span) (800 mkd × 5 i.p.): -70%
Mean Animal Weight (on the day of death) (800 mkd × 5 i.p.): 19.5 g
Survival Range (800 mkd × 5 i.p.): 2-2 days
Mean ± SD survival (800 mkd × 5 i.p.): 2.0 ± 0 days
Median survival (800 mkd × 5 i.p.): 2 days
dose of maximal therapeutic efficacy (5 day i.p. schedule, 1 dose per day days 1-5): 500 mg/kg/day
mortality due to drug toxicity (i.p. days 1-5, 800 mkd): eventual mortality due to drug toxicity
host toxicity (i.p. days 1-5, above 500 mkd, evidenced by increased weight loss): increased host toxicity
